One test has as its target LRRK2 (Homo sapiens, UniProt Q5S007). Description: LRRK2-LRRK2 G2019S-Assay (LanthaScreen Eu Kinase Binding Assay). Conditions: 5 nM LRRK2, 10 nM tracer 236, 2 nM EU-Anti-GST antibody, 1 h at RT; read-out: LRRK2 Activities: IC50. In outline: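 Compound competition with Alexa Fluor 647 tracer 236 (10 nM) was measured after 1 h at room temperature, using 5 nM LRRK2 (wild type or mutant) bound to 2 nM Eu-anti-GST antibody. IC50 was derived from the acceptor/donor (665/615 nm) ratio using a variable-slope dose-response fit.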

The next test deals with T1, SYK kinase (Homo sapiens, UniProt P43405).
T1 construct: purchased Invitrogen, Carlsbad
Description: SYK Assay (OMNIA Kinase Assay, SOX peptide fluorescence). Format: biochemical. Particulars: 1 mM ATP, 10 μM Omnia Peptide Substrate Tyr 7, 30° C., readings for 30 minutes; read-out: SYK Activities: IC50. The method, then: In the assay OMNIA® KINASE ASSAY by Invitrogen Corporation (Carlsbad) the effect of invention of a compound on the phosphorylation is determined by measurement of fluorescence intensity of a chelation-enhanced fluorophore called SOX. Upon phosphorylation of the peptide by the kinase of interest, Mg2+ is chelated to form a bridge between the SOX moiety and the phosphate group that is transferred to the specific tyrosine on the peptide. The fluorescence intensity is directly proportional to the amount of peptide phosphorylation.
To the wells of an 384 well small volume plate (Greiner, Frickenhausen) are added (i) the compound under test in 5% DMSO/distilled water (2 μl), (ii) 16 μl of the master mix containing ATP, DTT, Kinase Reaction Buffer, Omina Peptide Substrate Tyr 7 resulting in a final concentration of 1 mM ATP, 0.2 mM DTT and 10 μM Peptide Substrate.
The Master Mix and the assay plate was incubated to reaction temperature before the measurement (30° C.). The reaction was started with addition of (iii) 2 μl 4 μg/ml SYK kinase (Invitrogen, Carlsbad). During measurement fluorescence intensity readings were collected using a TECAN M1000 at a wavelength of λex 360/λem 485 nm every 30 s for 30 minutes. The reaction velocity was plotted versus the inhibitor concentration to determine the IC50 using XLFit 5.0 (IDBS, Guildford) to fit to a sigmoidal dose response curve.

Experimental findings from patent US10752624B2, “Kinase inhibitors” (Origenis GmbH, priority 2012, dated 2020) are described below.

Sequence of LRRK2 (Q5S007 970-2527 limits assumed): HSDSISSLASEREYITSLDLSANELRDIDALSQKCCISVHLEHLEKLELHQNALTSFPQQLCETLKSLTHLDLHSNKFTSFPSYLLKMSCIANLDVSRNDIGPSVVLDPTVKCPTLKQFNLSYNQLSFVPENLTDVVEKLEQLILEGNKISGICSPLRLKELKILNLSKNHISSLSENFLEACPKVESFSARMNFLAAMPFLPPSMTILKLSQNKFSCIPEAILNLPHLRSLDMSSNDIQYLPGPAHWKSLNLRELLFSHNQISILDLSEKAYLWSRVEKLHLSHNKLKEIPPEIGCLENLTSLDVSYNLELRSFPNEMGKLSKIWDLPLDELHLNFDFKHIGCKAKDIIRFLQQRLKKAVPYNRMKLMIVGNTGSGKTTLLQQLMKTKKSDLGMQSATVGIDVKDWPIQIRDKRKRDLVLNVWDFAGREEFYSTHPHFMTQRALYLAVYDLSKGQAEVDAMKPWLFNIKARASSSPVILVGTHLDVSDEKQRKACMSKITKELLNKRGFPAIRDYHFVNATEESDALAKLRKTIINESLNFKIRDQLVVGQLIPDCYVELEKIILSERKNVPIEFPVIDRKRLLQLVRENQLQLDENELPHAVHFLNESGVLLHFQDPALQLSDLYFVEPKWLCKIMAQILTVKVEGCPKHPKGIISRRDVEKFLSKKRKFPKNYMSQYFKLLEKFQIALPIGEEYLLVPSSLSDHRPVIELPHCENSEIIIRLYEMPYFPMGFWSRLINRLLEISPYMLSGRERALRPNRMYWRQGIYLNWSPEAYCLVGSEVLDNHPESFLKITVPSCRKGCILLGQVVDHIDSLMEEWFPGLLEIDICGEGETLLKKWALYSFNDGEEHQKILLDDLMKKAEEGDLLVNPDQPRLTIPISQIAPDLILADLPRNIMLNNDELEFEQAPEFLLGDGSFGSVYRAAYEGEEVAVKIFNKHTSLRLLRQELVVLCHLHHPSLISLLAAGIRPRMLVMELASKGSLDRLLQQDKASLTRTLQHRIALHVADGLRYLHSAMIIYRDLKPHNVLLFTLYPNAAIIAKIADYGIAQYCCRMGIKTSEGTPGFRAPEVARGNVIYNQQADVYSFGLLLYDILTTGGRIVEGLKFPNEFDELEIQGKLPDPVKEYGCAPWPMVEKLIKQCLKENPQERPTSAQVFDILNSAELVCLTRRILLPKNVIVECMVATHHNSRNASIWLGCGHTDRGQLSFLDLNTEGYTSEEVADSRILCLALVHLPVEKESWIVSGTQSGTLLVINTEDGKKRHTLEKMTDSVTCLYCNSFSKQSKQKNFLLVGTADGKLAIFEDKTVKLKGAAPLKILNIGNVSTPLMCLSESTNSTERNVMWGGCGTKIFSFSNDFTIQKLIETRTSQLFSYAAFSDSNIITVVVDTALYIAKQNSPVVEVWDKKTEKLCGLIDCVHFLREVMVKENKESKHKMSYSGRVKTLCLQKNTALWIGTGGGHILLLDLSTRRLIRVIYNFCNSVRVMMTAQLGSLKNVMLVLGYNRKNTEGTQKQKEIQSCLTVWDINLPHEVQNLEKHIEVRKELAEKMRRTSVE

Turning to `CN1CCN(C(=O)c2ccc(Nc3nc4ccc(S(C)(=O)=O)cc4c4cn[nH]c34)cc2)CC1` [Example 65, (4-methylpiperazin-1-yl)(4-((8-(methylsulfonyl)-3H-pyrazolo[3,4-c]quinolin-4-yl)amino)phenyl)methanone], the IC50 on LRRK2 and at SYK kinase was 10 to 100 nM in each case.
Regarding `CS(=O)(=O)c1ccc2nc(Nc3ccc(C(N)=O)cc3)c3[nH]ncc3c2c1` [Example 66, 4-((8-(methylsulfonyl)-3H-pyrazolo[3,4-c]quinolin-4-yl)amino)benzamide], the IC50 on LRRK2 and on SYK kinase was 10 to 100 nM throughout.
With `CN1CCN(C2CCN(c3ccc(Nc4nc5ccc(S(C)(=O)=O)cc5c5cn[nH]c45)cc3)CC2)CC1` [Example 67, N-(4-(4-(4-methylpiperazin-1-yl)piperidin-1-yl)phenyl)-8-(methylsulfonyl)-3H-pyrazolo[3,4-c]quinolin-4-amine], the IC50 on LRRK2 is 10 to 100 nM; on SYK kinase, less than 10 nM.
The matching figures for `CC(=O)N1CCN(c2ccc(Nc3nc4ccc(C)cc4c4cn[nH]c34)cc2)CC1` [Example 73, 1-(4-(4-((8-methyl-3H-pyrazolo[3,4-c]quinolin-4-yl)amino)phenyl)piperazin-1-yl)ethan-1-one]: 10 to 100 nM and 100 to 1000 nM.
Take `Cc1ccc2nc(Nc3ccc(N4CCOCC4)cc3)c3[nH]ncc3c2c1` [Example 74, 8-methyl-N-(4-morpholinophenyl)-3H-pyrazolo[3,4-c]quinolin-4-amine]: the concentration for half-maximal inhibition (IC50) at LRRK2 lay within 10 to 100 nM; on SYK kinase, 100 to 1000 nM.
Take `CS(=O)(=O)c1ccc2nc(Nc3ccc(N4CCOC4=O)cc3)c3[nH]ncc3c2c1` [Example 76, 3-(4-((8-(methylsulfonyl)-3H-pyrazolo[3,4-c]quinolin-4-yl)amino)phenyl)oxazolidin-2-one]: the results for the IC50 on LRRK2 and at SYK kinase were 10 to 100 nM and 100 to 1000 nM, respectively.
The matching figures for `CS(=O)(=O)c1ccc2nc(Nc3ccc4c(c3)NC(=O)CCC4)c3[nH]ncc3c2c1` [Example 77, 8-((8-(methylsulfonyl)-3H-pyrazolo[3,4-c]quinolin-4-yl)amino)-4,5-dihydro-1H-benzo[b]azepin-2(3H)-one]: less than 10 nM and less than 10 nM.
As for `CS(=O)(=O)c1cccc(Nc2nc3ccc(S(C)(=O)=O)cc3c3cn[nH]c23)c1` [Example 78, 8-(methylsulfonyl)-N-(3-(methylsulfonyl)phenyl)-3H-pyrazolo[3,4-c]quinolin-4-amine], the IC50 on LRRK2 was 10 to 100 nM; at SYK kinase it was 100 to 1000 nM.
`COc1cccc2nc(Nc3ccc(N4CCN(C)CC4)nc3)c3[nH]ncc3c12` [Example 79, 9-methoxy-N-(6-(4-methylpiperazin-1-yl)pyridin-3-yl)-3H-pyrazolo[3,4-c]quinolin-4-amine]: the IC50 was 10 to 100 nM at LRRK2 and 100 to 1000 nM on SYK kinase.
Regarding `CC(C)(C)N1CCN(c2ccc(Nc3nc4ccc(S(C)(=O)=O)cc4c4cn[nH]c34)cc2)CC1` [Example 80, N-(4-(4-(tert-butyl)piperazin-1-yl)phenyl)-8-(methylsulfonyl)-3H-pyrazolo[3,4-c]quinolin-4-amine], the IC50 at LRRK2 and on SYK kinase was 10 to 100 nM in each case.
As for `CN1CCN(c2ccc(Nc3nc4ccc(S(C)(=O)=O)cc4c4cn[nH]c34)cn2)CC1` [Example 81, N-(6-(4-methylpiperazin-1-yl)pyridin-3-yl)-8-(methylsulfonyl)-3H-pyrazolo[3,4-c]quinolin-4-amine], the results for the IC50 at LRRK2 and on SYK kinase were 10 to 100 nM and 100 to 1000 nM, respectively.
With `COc1ccc2nc(Nc3cnn(C)c3)c3n[nH]cc3c2c1` [Example 83, 8-methoxy-N-(1-methyl-1H-pyrazol-4-yl)-2H-pyrazolo[3,4-c]quinolin-4-amine], the IC50 on LRRK2 lay within 10 to 100 nM; at SYK kinase it was 100 to 1000 nM.
In the same order, the values of `COc1ccc2nc(Nc3cnn(C4CCOCC4)c3)c3n[nH]cc3c2c1` [Example 85, 8-methoxy-N-(1-(tetrahydro-2H-pyran-4-yl)-1H-pyrazol-4-yl)-2H-pyrazolo[3,4-c]quinolin-4-amine] are 10 to 100 nM and 100 to 1000 nM.
For the compound `COc1ccc2nc(Nc3ccc(N4CCC(N5CCOCC5)CC4)cc3)c3n[nH]cc3c2c1` [Example 86, 8-methoxy-N-(4-(4-morpholinopiperidin-1-yl)phenyl)-2H-pyrazolo[3,4-c]quinolin-4-amine], the IC50 on LRRK2 and at SYK kinase was 100 to 1000 nM each time.
Regarding `CS(=O)(=O)c1cccc2nc(Nc3ccc4c(c3)NC(=O)CCC4)c3[nH]ncc3c12` [Example 98, 8-((9-(methylsulfonyl)-3H-pyrazolo[3,4-c]quinolin-4-yl)amino)-4,5-dihydro-1H-benzo[b]azepin-2(3H)-one], the IC50 fell in the range of 10 to 100 nM on LRRK2 and 100 to 1000 nM at SYK kinase.
The matching figures for `CS(=O)(=O)c1ccc2c(c1)nc(Nc1ccc(N3CCOCC3)cc1)c1[nH]ncc12` [Example 101, 7-(methylsulfonyl)-N-(4-morpholinophenyl)-3H-pyrazolo[3,4-c]quinolin-4-amine]: 10 to 100 nM and 100 to 1000 nM.
`CS(=O)(=O)c1cccc2nc(Nc3cnn(C4CCOCC4)c3)c3[nH]ncc3c12` [Example 108, 9-(methylsulfonyl)-N-(1-(tetrahydro-2H-pyran-4-yl)-1H-pyrazol-4-yl)-3H-pyrazolo[3,4-c]quinolin-4-amine]: the IC50 at LRRK2 lay within 10 to 100 nM; at SYK kinase, 100 to 1000 nM.
For the compound `COCCn1cc(Nc2nc3ccc(OC)cc3c3c[nH]nc23)cn1` [Example 109, 8-methoxy-N-(1-(2-methoxyethyl)-1H-pyrazol-4-yl)-2H-pyrazolo[3,4-c]quinolin-4-amine], the IC50 on LRRK2 is 10 to 100 nM; at SYK kinase, 100 to 1000 nM.
In the case of `COc1cccc2nc(Nc3cnn(C4CCN(C)CC4)c3)c3[nH]ncc3c12` [Example 118, 9-methoxy-N-(1-(1-methylpiperidin-4-yl)-1H-pyrazol-4-yl)-3H-pyrazolo[3,4-c]quinolin-4-amine], the results for the IC50 on LRRK2 and on SYK kinase were less than 10 nM and 10 to 100 nM, respectively.
Regarding `CS(=O)(=O)c1ccc2c(c1)nc(Nc1ccc3c(c1)NC(=O)CCC3)c1[nH]ncc12` [Example 119, 8-((7-(methylsulfonyl)-3H-pyrazolo[3,4-c]quinolin-4-yl)amino)-4,5-dihydro-1H-benzo[b]azepin-2(3H)-one], the figures for the IC50 on LRRK2 and on SYK kinase were 100 to 1000 nM and 10 to 100 nM, respectively.
`CS(=O)(=O)c1ccc2c(c1)nc(Nc1cnn(C3CCOCC3)c1)c1[nH]ncc12` [Example 120, 7-(methylsulfonyl)-N-(1-(tetrahydro-2H-pyran-4-yl)-1H-pyrazol-4-yl)-3H-pyrazolo[3,4-c]quinolin-4-amine]: the figures for the IC50 on LRRK2 and at SYK kinase were less than 10 nM and 10 to 100 nM, respectively.
Regarding `CS(=O)(=O)c1ccc2nc(Nc3cnn(C4CCOCC4)c3)c3[nH]ncc3c2c1` [Example 143, 8-(methylsulfonyl)-N-(1-(tetrahydro-2H-pyran-4-yl)-1H-pyrazol-4-yl)-3H-pyrazolo[3,4-c]quinolin-4-amine], the results for the IC50 at LRRK2 and at SYK kinase were less than 10 nM and 10 to 100 nM, respectively.
Take `CN1CCC(n2cc(Nc3nc4cc(S(C)(=O)=O)ccc4c4cn[nH]c34)cn2)CC1` [Example 167, N-(1-(1-methylpiperidin-4-yl)-1H-pyrazol-4-yl)-7-(methylsulfonyl)-3H-pyrazolo[3,4-c]quinolin-4-amine]: the IC50 on LRRK2 lay within 100 to 1000 nM; on SYK kinase, 10 to 100 nM.
